Tested on: histamine H2 -receptors
Test: inhibition of histamine-stimulated gastric acid secretion in urethane-anaesthetised rats after intraduodenal and intravenous injection
Type: in vivo, rat
Details: ratio intraduodenal/intravenous dose for 50% inhibition; rats anaesthetised with urethane
Method: The inhibition of histamine-stimulated secretion of gastric acid in rats anaesthetised with urethane was measured after administration of test compounds by intraduodenal injection and intravenous injection. For the compound of Example 2 the intraduodenal dose required to produce 50% inhibition was only 3 times the intravenous dose required to produce a similar effect, and for the compound of Example 10 the intraduodenal dose required was 10 times the intravenous dose. In contrast the compound of Example 7 of EP-A-3677 required an intraduodenal dose 500 times that of the intravenous dose required to inhibit acid secretion by 50%. Good activity after intraduodenal injection is indicative that there will good activity after oral administration.

Row | SMILES | intraduodenal dose required to produce 50% inhibition of acid secretion relative to the intravenous dose [times]
1 | Cn1ccc(Cc2cnc(NCCCOc3cccc(CN4CCCCC4)c3)[nH]c2=O)cc1=O [Example 10, 2-[3-[3-(Piperidinomethyl)phenoxy]propylamino]-5-(1-methyl-2-oxopyridin-4-ylmethyl)pyrimidin-4-one] | 10
2 | CN(C)Cc1ccc(CSCCNc2ncc(Cc3ccn(C)c(=O)c3)c(=O)[nH]2)o1 [Example 2, 2-[2-(2-Dimethylaminomethyl-5-furylmethylthio)ethylamino]-5-(1-methyl-2-oxopyridin-4-ylmethyl)pyrimidin-4-one] | 3

From US4540699A, “N-Substituted pyridinones having histamine H2 -antagonist activity” (Smith Kline & French Laboratories Limited, priority 1982, dated 1985)
